Laboratory results from patent publication US12486246B2, “Replication protein A (RPA)-DNA interaction inhibitors” (THE TRUSTEES OF INDIANA UNIVERSITY, priority 2019, dated 2025).

Legend:
[1] = biological target: T1, full length heterotrimeric human RPA (Homo sapiens, UniProt P27694); assay: Electrophoretic mobility shift assay (EMSA), binding of full length human RPA to ssDNA; conditions: full length human RPA binding to DNA, mean ± SD of minimum triplicate experiments
T1 construct: Full length, heterotrimeric human RPA (fl-RPA) and DBD-A/B constructs were expressed and purified; made in house
T1 sequence (P27694 whole entry): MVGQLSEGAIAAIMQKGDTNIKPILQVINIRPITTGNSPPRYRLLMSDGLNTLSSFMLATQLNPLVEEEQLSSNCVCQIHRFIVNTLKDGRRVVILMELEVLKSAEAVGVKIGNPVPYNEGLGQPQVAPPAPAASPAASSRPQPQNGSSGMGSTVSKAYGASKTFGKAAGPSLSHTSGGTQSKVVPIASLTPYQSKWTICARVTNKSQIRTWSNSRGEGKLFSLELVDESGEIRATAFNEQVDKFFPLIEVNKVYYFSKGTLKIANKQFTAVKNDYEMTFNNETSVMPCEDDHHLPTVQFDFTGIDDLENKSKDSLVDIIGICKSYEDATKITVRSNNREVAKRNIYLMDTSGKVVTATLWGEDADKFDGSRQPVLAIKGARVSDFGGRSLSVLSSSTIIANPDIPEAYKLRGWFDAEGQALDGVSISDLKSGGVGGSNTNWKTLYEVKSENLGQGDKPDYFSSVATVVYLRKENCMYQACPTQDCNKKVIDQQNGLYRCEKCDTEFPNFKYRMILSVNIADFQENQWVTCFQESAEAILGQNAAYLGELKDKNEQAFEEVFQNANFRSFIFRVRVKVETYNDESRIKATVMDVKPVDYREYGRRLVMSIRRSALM
T1 sequence (P15927 whole entry partner): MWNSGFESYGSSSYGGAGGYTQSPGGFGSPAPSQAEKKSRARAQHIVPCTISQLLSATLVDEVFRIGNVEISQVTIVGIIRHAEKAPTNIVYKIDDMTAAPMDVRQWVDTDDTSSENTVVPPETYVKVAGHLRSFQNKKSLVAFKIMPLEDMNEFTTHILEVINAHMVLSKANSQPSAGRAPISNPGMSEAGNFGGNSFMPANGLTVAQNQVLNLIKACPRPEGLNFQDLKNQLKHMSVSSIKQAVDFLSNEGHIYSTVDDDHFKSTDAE
T1 sequence (P35244 whole entry partner): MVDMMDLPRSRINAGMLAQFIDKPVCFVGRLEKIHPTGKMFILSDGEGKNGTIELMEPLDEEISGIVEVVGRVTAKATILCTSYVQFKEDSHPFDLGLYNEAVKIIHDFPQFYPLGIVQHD
Outline: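 Full-length human RPA (50 nM) preincubated 30 min with compound (DMSO ≤5%), then 2.5 nM 5′-32P 34-base ssDNA added for 5 min at room temperature in 20 mM HEPES pH 7.8, 50 mM NaCl. Bound/unbound resolved by 6% native PAGE, phosphorimager quantified; IC50 by non-linear regression.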

[2] = biological target: T2, RPA-AB construct (RPA70 AB domain) (Homo sapiens, UniProt P27694); assay: Differential scanning fluorimetry (DSF); format: binding
T2 construct: The DBD-A/B construct was expressed as a His6-RPA181-422 fusion protein; His6 (N); made in house; host or cells: E. coli BL21 (DE3)
T2 sequence (P27694 181-422): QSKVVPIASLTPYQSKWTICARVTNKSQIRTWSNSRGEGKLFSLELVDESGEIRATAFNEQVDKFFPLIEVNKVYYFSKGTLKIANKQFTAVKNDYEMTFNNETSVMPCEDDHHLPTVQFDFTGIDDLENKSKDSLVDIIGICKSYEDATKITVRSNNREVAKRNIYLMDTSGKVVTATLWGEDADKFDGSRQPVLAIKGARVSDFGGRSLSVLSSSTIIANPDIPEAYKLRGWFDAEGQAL
Protocol: In order to probe the potential role of DNA intercalation as a mechanism for RPA inhibition, compounds 19, 23, 26, 27, 43 and 45 were analyzed using FID assay along with doxorubicin (Dox) as a positive control. […] In addition, direct binding of 9 derivatives to the target protein was assessed using a differential scan fluorimetry (DSF) assay. This assay assesses the melting profile of a protein at increasing temperatures via fluorescent dye binding. The direct interaction of a small molecule to the target protein can either increase or decrease the melting temperature (Tm) of the target depending on the specific protein and their interactions. […] Heparin sulfate, a known RPA interacting molecule often used in the purification of the protein was used as a control. […] (data not shown). […] (FIG. 1B).
The interaction of compound 43 with RPA-AB constructs was performed by differential scanning fluorimetry using GloMelt™ Dye (Biotum). […] Reactions were run in an ABI 7500 real time PCR machine with temperature increasing from 25° C. to 99° C. at a 2% ramp (˜40 minutes) and fluorescence of the reporter was measured on the SYBR® Green setting. […] Data was uploaded to TSA-CRAFT software and Tm calculated as described by Lee et al. Heparin was employed as a positive control of binding to the AB-box of RPA.

H460 NSCLC cells [3] = assay: Cell survival, CCK-8 metabolic assay, single agent; format: cell-based
Protocol: Cell survival was determined by CCK-8 viability assay and/or clonogenic survival assay in 96 well plates or 24 well plates, respectively and combination index (CI) analysis of drug-drug interactions determined by Chou-Talalay analysis as we have previously described. • 1) CCK-8 metabolic assay: Cells were plated (2500 cells/well) in 96-well plate and allowed to grow for at least 18 hours in at 37° C. in the presence of 5% CO2 before treatment with inhibitor for 48 hours. CCK-8 solution (Dojindo) was added to 10% of the total media volume and after 1-4 hours of incubation absorbance at 450 nm was determined using BioTek® Synergy™ H1 hybrid multi-mode microplate reader • 2) Clonogenic survival assay: Cells were plated in a 24 well (20,000 cells/well) plate, incubated for at least 18 hours and then treated with inhibitor. […] Images of the stained colonies were captured with a Fuji LAS-3000 CCD system then counted using OpenCFU software. Viability is determined as a percent of vehicle controls and plotted versus drug concentration. • 3) Assessment of synergy via combination index (CI): In the combination index studies, cells (H460 or SKGT4) were treated with RPA inhibitor and Pt/etoposide/bleomycin/taxol/DDR inhibitor alone as well as the combination of both—the inhibitor and the DNA damaging chemotherapeutic agent/DDR inhibitor. […]

H460 NSCLC cells [4] = assay: Combination index (Chou-Talalay), CCK-8 assay; format: cell-based
Protocol: Cell survival was determined by CCK-8 viability assay and/or clonogenic survival assay in 96 well plates or 24 well plates, respectively and combination index (CI) analysis of drug-drug interactions determined by Chou-Talalay analysis as we have previously described. • 1) CCK-8 metabolic assay: Cells were plated (2500 cells/well) in 96-well plate and allowed to grow for at least 18 hours in at 37° C. in the presence of 5% CO2 before treatment with inhibitor for 48 hours. CCK-8 solution (Dojindo) was added to 10% of the total media volume and after 1-4 hours of incubation absorbance at 450 nm was determined using BioTek® Synergy™ H1 hybrid multi-mode microplate reader • 2) Clonogenic survival assay: Cells were plated in a 24 well (20,000 cells/well) plate, incubated for at least 18 hours and then treated with inhibitor. After 48 hours of treatment, the cells are re-plated in 10 cm dishes (500 cells/dish) and incubated for 8-10 days to allow colony formation. Plates are washed with PBS, fixed with glutaraldehyde and stained with crystal violet. Images of the stained colonies were captured with a Fuji LAS-3000 CCD system then counted using OpenCFU software. Viability is determined as a percent of vehicle controls and plotted versus drug concentration. • 3) Assessment of synergy via combination index (CI): In the combination index studies, cells (H460 or SKGT4) were treated with RPA inhibitor and Pt/etoposide/bleomycin/taxol/DDR inhibitor alone as well as the combination of both—the inhibitor and the DNA damaging chemotherapeutic agent/DDR inhibitor. The range of treatment was dependent on the IC50 of each inhibitor/drug. If the IC50 was X, then the cells were treated at a range of 0.04× to 5× concentration in a CCK-8 metabolic assay. The kill curves from both the single agent treatments as well as the combination treatment were used in a Chou-Talalay based method to determine the combination index (CI) at different fractions of cells affected.^40 A CI>1.0 indicates antagonism between the two agents, while a CI<1.0 indicates synergy.
Inhibiting RPA can act synergistically with DNA damaging therapeutics including cisplatin and etoposide (FIG. 4C). In these studies, we used the Chou-Talalay method, which provides a combination index (CI) that quantifies synergistic activity for each drug combination. […] The synergistic activity of compounds described herein with DNA damaging agents may be explained by RPA's role in the DNA damage response and signaling.

IC50 [1]: 4.99 ± 0.28 µM
increase in Tm [2]: 0.6 °C
Compound: CCOc1ccc2cc(C3CC(c4ccc(I)cc4)=NN3C(=O)CCCC(=O)NCCCN3CCOCC3)c(Cl)nc2c1 (centres unmarked) [Compound 43, 5-(5-(2-Chloro-7-ethoxyquinolin-3-yl)-3-(4-iodophenyl)-4,5-dihydro-1H-pyrazol-1-yl)-N-(3-morpholinopropyl)-5-oxopentanamide]
cellular anticancer activity compared to compound 9 (H460 NSCLC cells [3]): increase in cellular anticancer activity
synergy (combination index) with bleomycin (H460 NSCLC cells [4]): stronger synergy
synergy (combination index) with DNA damaging therapeutics cisplatin and etoposide (H460 NSCLC cells [4]; CI <1.0 = synergy): even greater synergy than either of its predecessors
